US20180360093A1, “NUTRITIONAL COMPOSITIONS AND INFANT FORMULAS TO PROMOTE MYELINATION IN THE BRAIN” (NESTEC S.A., priority 2015, published 2018)

Tested on: brain myelination
Assay: Cross-sectional correlation analysis (GLM) of formula nutrient composition versus brain myelination (MWF by mcDESPOT MRI)
Assay type: in vivo, human
Settings: children up to 5 years fed different infant formulas during infancy; voxel-wise correlations, p<0.05 corrected
Protocol: MRI brain scans of infants and children between 0 and 5 years were acquired using a white matter imaging technique. This technique provides a quantitative measure, the Myelin Water Fraction (MWF), which is a surrogate marker of myelin content. When mapped as a function of time across early childhood, myelination trajectories can be generated.
Infant formula composition: six infant formulas fed to infants participating in study were analyzed for their composition/level of myelin-relevant nutrients.
Infants included in this study were drawn from a larger longitudinal study of normal brain and behavioral development: the Brown university Assessment of Myelination and Behavior Across Maturation (BAMBAM). To focus on neurotypical development, children with known potential risk factors for learning, neurologic, or psychiatric disorders were specifically excluded during recruitment and enrollment. Thus, children with in utero alcohol or illicit substance exposure, premature (<37 weeks gestation) or multiple birth, fetal ultrasound abnormalities, complicated pregnancy (e.g., preeclampsia), APGAR scores<8, NICU admission, neurological disorder (e.g., head injury, epilepsy), psychiatric or developmental disorders in the infant, parents or siblings (including maternal depression requiring medication) were excluded. Ongoing screenings, such as the MCAT for autism, or CBCL for behavioral problems, were further used to remove enrolled children with clinically concerning behaviors or overt medical conditions (such as autism spectrum disorders).
A combination of retrospective and prospective data were acquired from parents via detailed medical histories and parental interview on type of infant formula used, percentage of breastfeeding to formula feeding, and length of exclusive breastfeeding. This information was updated at each study visit, which occurred approximately every 6 months for children under 2 years, and yearly for older children. Using this information, children were categorized into one of 2 groups: #1. Exclusively formula-fed; and #2. Exclusively breastfed for at least 90 days (3 months). Children who were fed a combination of breastmilk and formula within 3 months were excluded from our analysis. Infants within the exclusively formula-fed group were further sub-divided based on parental reports of the main infant formula used throughout the first 3 months. Main formula was defined as that given 90% of the time or more (in the case were parents used an alternate brand during vacation, for example).
Using these criteria, 94 exclusively formula-fed infants and young children were selected into group #1. These included 13 children who received formula #2; 28 who received formula #5; 8 who received formula #3; 39 who received formula #4; 5 who received formula #1 and 1 who received formula #6. A sample of 52 exclusively breast-fed infants were also selected and matched to the over formula-fed group with regards to mean age, gestation duration, birth weight, male:female ratio, ethnicity ratio, maternal education, family size, and number of languages spoken in the home (in addition to English).
Each infant was scanned using the mcDESPOT (multicomponent Driven Equilibrium Single Pulse Observation of T1 and T2) white matter imaging technique Deoni et al. (Magn. Reson. Med. 2008, 60:1372-1387), which provides a quantitative measure of the myelin water fraction (MWF) at each imaging point throughout the brain. All infants were scanned during natural (i.e. non-sedated) sleep using acoustically-muffled mcDESPOT imaging protocols. Total imaging times ranged from 19 minutes for the youngest toddlers to 24 minutes for the older 4 year-old children.

Compound	nutritional drivers for myelination (final general linear model)
CCCCC/C=C\C/C=C\C/C=C\C/C=C\CCCC(=O)O [ARA, arachidonic acid]	identified drivers
C[N+](C)(C)CCO [Choline]	identified drivers
Vitamin B12	identified drivers
phosphatidylcholine	identified drivers
phosphatidylinositol	identified drivers
sphingomyelin	identified drivers
